From ChEMBL document CHEMBL5608163, “Structure modification of anoplin for fighting resistant bacteria” (Eur J Med Chem, 2024)
≈ marks a conversion by molar mass, not a printed value. Peptide text beside a SMILES is read from it.

Tests used:
[1] = Hemolytic activity in human RBC assessed as hemolysis measured after 24 hrs; format: toxicity, cell-based, Erythrocyte; details: red blood cells
Staphylococcus aureus [2] = assay: Antibacterial activity against Staphylococcus aureus; format: functional
Pseudomonas aeruginosa [3] = assay: Antibacterial activity against Pseudomonas aeruginosa; format: functional
Escherichia coli [4] = assay: Antibacterial activity against Escherichia coli; format: functional
[5] = Hemolytic activity in human red blood cells; format: toxicity, cell-based, Erythrocyte; details: red blood cells
Enterococcus faecium [6] = assay: Antibacterial activity against Enterococcus faecium; format: functional
Bacillus subtilis [7] = assay: Antibacterial activity against Bacillus subtilis assessed as reduction in microbial growth; format: functional
Escherichia coli [8] = assay: Antibacterial activity against Escherichia coli ATCC 25922 assessed as reduction in bacterial growth by broth microdilution method; format: functional
[9] = tested on: Staphylococcus epidermidis; assay: Antibacterial activity against Staphylococcus epidermidis assessed as reduction in microbial growth; format: functional
Pseudomonas aeruginosa [10] = assay: Antibacterial activity against Pseudomonas aeruginosa ATCC 15442 assessed as growth inhibition; format: functional
Acinetobacter baumannii = assay: Antibacterial activity against Acinetobacter baumannii assessed as bacterial growth inhibition; format: functional
[11] = Hemolytic activity in human RBC; format: toxicity, cell-based, Erythrocyte; details: red blood cells
Klebsiella pneumoniae = assay: Antibacterial activity against Klebsiella pneumoniae; format: functional
Enterococcus faecalis = assay: Antibacterial activity against Enterococcus faecalis assessed as reduction in microbial growth; format: functional
Staphylococcus aureus [12] = assay: Antibacterial activity against Staphylococcus aureus ATCC 25923 assessed as reduction in bacterial growth incubated for 18 to 24 hrs by broth microdilution method; format: functional; details: time 18-24 hrs
Pseudomonas aeruginosa [13] = assay: Antibacterial activity against Pseudomonas aeruginosa assessed as reduction in bacterial growth by broth microdilution method; format: functional
Staphylococcus aureus [14] = assay: Antibacterial activity against Staphylococcus aureus ATCC 29213 assessed as bacterial growth inhibition measured after 18 hrs by CLSI protocol based two-fold serial microdilution method; format: functional
Enterococcus faecium [15] = assay: Antibacterial activity against Enterococcus faecium ATCC 27270; format: functional
[16] = Hemolytic activity in human RBC assessed as hemolysis; format: toxicity, cell-based, Erythrocyte; details: red blood cells
Escherichia coli [17] = assay: Antibacterial activity against Escherichia coli ATCC 25922 assessed as reduction in bacterial growth; format: functional
Staphylococcus aureus [18] = assay: Antibacterial activity against methicillin-resistant Staphylococcus aureus ATCC BAA1720 assessed as bacterial growth inhibition measured for 18 hrs by CLSI-protocol based Mueller-Hinton Broth micro-dilution assay; format: functional
Bacillus subtilis [19] = assay: Antibacterial activity against Bacillus subtilis assessed as reduction in bacterial growth incubated for 20 hrs by broth microdilution assay; format: functional
Bacillus subtilis [20] = assay: Antibacterial activity against Bacillus subtilis 168 assessed as bacterial growth inhibition measured for 18 hrs by CLSI-protocol based Mueller-Hinton Broth micro-dilution assay; format: functional
[21] = Hemolytic activity against Red blood cells (unknown origin) incubated for 1 hr by spectrophotometric analysis; format: toxicity, cell-based, Erythrocyte
Escherichia coli [22] = assay: Antibacterial activity against Escherichia coli assessed as reduction in bacterial growth incubated for 20 hrs by broth microdilution assay; format: functional
Staphylococcus aureus [23] = assay: Antibacterial activity against Staphylococcus aureus ATCC 29213 assessed as bacterial growth inhibition measured for 18 hrs by CLSI-protocol based Mueller-Hinton Broth micro-dilution assay; format: functional
Pseudomonas aeruginosa [24] = assay: Antibacterial activity against Pseudomonas aeruginosa ATCC 27853 assessed as bacterial growth inhibition measured for 18 hrs by CLSI-protocol based Mueller-Hinton Broth micro-dilution assay; format: functional
Bacillus subtilis [25] = assay: Antimicrobial activity against Bacillus subtilis assessed as reduction in microbial growth measured after 18 to 20 hrs by Mueller-Hinton broth based two-fold serial dilution method; format: functional; details: time 18-20 hrs
Pseudomonas aeruginosa [26] = assay: Antibacterial activity against Pseudomonas aeruginosa PAO1 assessed as bacterial growth inhibition measured for 18 hrs by CLSI-protocol based Mueller-Hinton Broth micro-dilution assay; format: functional
Salmonella typhimurium = assay: Antibacterial activity against Salmonella enterica subsp. enterica serovar Typhimurium LT2 assessed as bacterial growth inhibition measured for 18 hrs by CLSI-protocol based Mueller-Hinton Broth micro-dilution assay; format: functional
Escherichia coli [27] = assay: Antibacterial activity against Escherichia coli ATCC 25922 assessed as reduction in bacterial growth measured after 24 hrs by Mueller-Hinton broth based two-fold serial dilution method; format: functional
Staphylococcus aureus [28] = assay: Antibacterial activity against Staphylococcus aureus assessed as bacterial growth inhibition incubated for 20 hrs by broth microdilution assay; format: functional
Escherichia coli [29] = assay: Antibacterial activity against Escherichia coli MG1655 assessed as bacterial growth inhibition measured for 18 hrs by CLSI-protocol based Mueller-Hinton Broth micro-dilution assay; format: functional
Staphylococcus aureus [30] = assay: Antibacterial activity against Staphylococcus aureus ATCC 25923 assessed as reduction in bacterial growth measured after 24 hrs by Mueller-Hinton broth based two-fold serial dilution method; format: functional
Pseudomonas aeruginosa [31] = assay: Antibacterial activity against Pseudomonas aeruginosa assessed as reduction in bacterial growth incubated for 20 hrs by broth microdilution assay; format: functional
Erythrocyte = assay: Hemolytic activity in sheep RBC incubated for 30 mins; format: toxicity, cell-based, Ovis aries; details: 0.5 h
Escherichia coli [32] = assay: Antibacterial activity against wild type Escherichia coli MG1655 assessed as reduction in bacterial growth incubated for 18 to 24 hrs by broth micro-dilution method; format: functional; details: time 18-24 hrs
Escherichia coli [33] = assay: Antibacterial activity against Escherichia coli K12 assessed as bacterial growth inhibition measured for 18 hrs by CLSI-protocol based Mueller-Hinton Broth micro-dilution assay; format: functional
Pseudomonas aeruginosa [34] = assay: Antibacterial activity against Pseudomonas aeruginosa ATCC 15442 assessed as reduction in bacterial cell growth incubated for 18 hrs by two fold serial microdilution method; format: functional

## CC[C@H](C)[C@H](NC(=O)[C@H](CCCCN)NC(=O)[C@H](CCCCN)NC(=O)[C@H](CC(C)C)NC(=O)[C@H](CC(C)C)NC(=O)CN)C(=O)N[C@@H](CCCCN)C(=O)N[C@@H](CCCCN)C(=O)N[C@@H](CC(C)C)C(=O)N[C@@H](CC(C)C)C(N)=O
[1]
  HC50 at 24 h: > 500 µM
Staphylococcus aureus [2]
  MIC: 256 µM (≈ 295 µg/mL)
Pseudomonas aeruginosa [3]
  MIC: 28.4 µM (≈ 32.7 µg/mL)
Escherichia coli [4]
  MIC: 25 µM (≈ 28.8 µg/mL)
[5]
  HC50: < 500 µM
Enterococcus faecium [6]
  MIC: 56.9 µM (≈ 65.6 µg/mL)

## CC[C@H](C)[C@H](NC(=O)[C@H](CCCNC(=N)N)NC(=O)[C@H](CCCCN)NC(=O)[C@H](CC(C)C)NC(=O)[C@H](CC(C)C)NC(=O)CN)C(=O)N[C@@H](CCCCN)C(=O)N[C@H](C(=O)N[C@@H](CC(C)C)C(=O)N[C@@H](C)C(N)=O)[C@@H](C)O (H-GLLKRIKTLA-NH2)
Bacillus subtilis [7]
  MIC: 32 µM
Escherichia coli [8]
  MIC: 43.2 µM (≈ 48 µg/mL)
[9]
  MIC: 64 µM
Pseudomonas aeruginosa [10]
  MIC: 64 µM (≈ 71.1 µg/mL)
Acinetobacter baumannii
  MIC: ≥ 512 µM
[11]
  HC50: ≥ 512 µM
Klebsiella pneumoniae
  MIC: 256 µM (≈ 285 µg/mL)
Enterococcus faecalis
  MIC: ≥ 512 µM
Staphylococcus aureus [12]
  MIC: 43.2 µM (≈ 48 µg/mL)

## CC[C@H](C)[C@H](NC(=O)[C@H](Cc1c[nH]c2ccccc12)NC(=O)[C@H](CCCCN)NC(=O)[C@H](CC(C)C)NC(=O)[C@H](CC(C)C)NC(=O)CN)C(=O)N[C@@H](CCCCN)C(=O)N[C@H](C(=O)N[C@@H](CC(C)C)C(=O)N[C@@H](CC(C)C)C(N)=O)[C@@H](C)O (H-GLLKWIKTLL-NH2)
Staphylococcus aureus [2]
  MIC: 19.6 µM (≈ 23.2 µg/mL)
Escherichia coli [4]
  MIC: 14.2 µM (≈ 16.8 µg/mL)
Pseudomonas aeruginosa [13]
  MIC: 28.4 µM (≈ 33.6 µg/mL)
Staphylococcus aureus [14]
  MIC: 62.2 µM (≈ 73.6 µg/mL)
Enterococcus faecium [15]
  MIC: 9.5 µM (≈ 11.2 µg/mL)
[16]
  HC50: 14 µM
Escherichia coli [17]
  MIC: 62.2 µM (≈ 73.6 µg/mL)

## CC.CC[C@H](C)[C@H](NC(=O)[C@H](CCCNC(=N)N)NC(=O)[C@H](CCCCN)NC(=O)[C@H](CC(C)C)NC(=O)[C@H](CC(C)C)NC(=O)CN)C(=O)N[C@@H](CCCCN)C(=O)N[C@H](C(=O)N[C@@H](CC(C)C)C(=O)N[C@@H](CC(C)C)C(N)=O)[C@@H](C)O
Staphylococcus aureus [18]
  MIC: ≥ 64 µM
Bacillus subtilis [19]
  MIC: 32 µM
Bacillus subtilis [20]
  MIC: 16 µM
[21]
  HC50 at 1 h: > 400 µM
Escherichia coli [22]
  MIC: 64 µM
Staphylococcus aureus [23]
  MIC: ≥ 64 µM
Pseudomonas aeruginosa [24]
  MIC: 32 µM
Bacillus subtilis [25]
  MIC: 16 µM
Pseudomonas aeruginosa [26]
  MIC: 16 µM
Salmonella typhimurium
  MIC: 64 µM
Escherichia coli [27]
  MIC: > 22.6 µM
Staphylococcus aureus [28]
  MIC: 64 µM
Escherichia coli [29]
  MIC: 32 µM
Staphylococcus aureus [30]
  MIC: 11.3 µM
Pseudomonas aeruginosa [31]
  MIC: 32 µM
Erythrocyte
  HC10: > 64 µM
Escherichia coli [32]
  MIC: 32 µM
Escherichia coli [33]
  MIC: 32 µM

## CC[C@H](C)[C@H](NC(=O)[C@H](CCCCN)NC(=O)[C@H](CCCCN)NC(=O)[C@H](CC(C)C)NC(=O)[C@H](CC(C)C)NC(=O)CN)C(=O)N[C@@H](CCCCN)C(=O)N[C@H](C(=O)N[C@@H](CC(C)C)C(=O)N[C@@H](CC(C)C)C(N)=O)[C@@H](C)O
[16]
  HC50: 269 µM
Pseudomonas aeruginosa [34]
  MIC: 56.8 µM (≈ 63.9 µg/mL)
Enterococcus faecium [6]
  MIC: 171 µM (≈ 192 µg/mL)
